In the supplement of paper PMC10307832:

Key:
Assay in all cases: relative viability (nuclei count vs DMSO), 5 days (fraction); higher = more cells survive
Afatinib = compound: CN(C)C/C=C/C(=O)Nc1cc2c(Nc3ccc(F)c(Cl)c3)ncnc2cc1O[C@H]1CCOC1 [Afatinib]
Procedure, shortened: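 Lung cancer cell lines in 1536-well plates were exposed by pinning to five library-drug doses (not always all listed) √10 apart, following an overnight hold at 37 °C. MetaXpress counted Hoechst-stained nuclei from 4× images taken after 5 days without medium change. Viability is the median ratio of treated-well to vehicle-well nuclei across plates. Plates required control CV below 25% and at least one doubling.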

Afatinib + Foretinib = compound: CN(C)C/C=C/C(=O)Nc1cc2c(Nc3ccc(F)c(Cl)c3)ncnc2cc1O[C@H]1CCOC1 [Afatinib] + COc1cc2c(Oc3ccc(NC(=O)C4(C(=O)Nc5ccc(F)cc5)CC4)cc3F)ccnc2cc1OCCCN1CCOCC1 [Foretinib] (partner 0.25 µM)
Procedure, shortened: (§1)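 Lung cancer cell lines, seeded in 1536-well plates, were treated the following day by pin tool with a single drug or with five library-drug doses (not always all listed) in √10 steps on top of a fixed anchor-drug dose. Cells were fixed and nuclei stained in one step after 5 days, and nuclei were counted. Relative viability is the nuclei count for treated wells divided by that for vehicle wells, reported as medians of duplicate plates.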

Afatinib + Pictilisib = compound: CN(C)C/C=C/C(=O)Nc1cc2c(Nc3ccc(F)c(Cl)c3)ncnc2cc1O[C@H]1CCOC1 [Afatinib] + CS(=O)(=O)N1CCN(Cc2cc3nc(-c4cccc5[nH]ncc45)nc(N4CCOCC4)c3s2)CC1 [Pictilisib] (partner 1 µM)
Procedure, shortened: as §1

Afatinib + Olaparib = compound: CN(C)C/C=C/C(=O)Nc1cc2c(Nc3ccc(F)c(Cl)c3)ncnc2cc1O[C@H]1CCOC1 [Afatinib] + O=C(c1cc(Cc2n[nH]c(=O)c3ccccc23)ccc1F)N1CCN(C(=O)C2CC2)CC1 [Olaparib] (partner 8 µM)
Procedure, shortened: as §1

Afatinib + Lapatinib = compound: CN(C)C/C=C/C(=O)Nc1cc2c(Nc3ccc(F)c(Cl)c3)ncnc2cc1O[C@H]1CCOC1 [Afatinib] + CS(=O)(=O)CCNCc1ccc(-c2ccc3ncnc(Nc4ccc(OCc5cccc(F)c5)c(Cl)c4)c3c2)o1 [Lapatinib] (partner 2 µM)
Procedure, shortened: as §1

Afatinib + Linsitinib = compound: CN(C)C/C=C/C(=O)Nc1cc2c(Nc3ccc(F)c(Cl)c3)ncnc2cc1O[C@H]1CCOC1 [Afatinib] + C[C@]1(O)C[C@@H](c2nc(-c3ccc4ccc(-c5ccccc5)nc4c3)c3c(N)nccn32)C1 [Linsitinib] (partner 1 µM)
Procedure, shortened: as §1

Afatinib + Crizotinib = compound: CN(C)C/C=C/C(=O)Nc1cc2c(Nc3ccc(F)c(Cl)c3)ncnc2cc1O[C@H]1CCOC1 [Afatinib] + C[C@@H](Oc1cc(-c2cnn(C3CCNCC3)c2)cnc1N)c1c(Cl)ccc(F)c1Cl [Crizotinib] (partner 1 µM)
Procedure, shortened: as §1

Afatinib + Bortezomib = compound: CN(C)C/C=C/C(=O)Nc1cc2c(Nc3ccc(F)c(Cl)c3)ncnc2cc1O[C@H]1CCOC1 [Afatinib] + CC(C)C[C@H](NC(=O)[C@H](Cc1ccccc1)NC(=O)c1cnccn1)B(O)O [Bortezomib] (partner 0.002 µM)
Procedure, shortened: as §1

Afatinib + Alpelisib = compound: CN(C)C/C=C/C(=O)Nc1cc2c(Nc3ccc(F)c(Cl)c3)ncnc2cc1O[C@H]1CCOC1 [Afatinib] + Cc1nc(NC(=O)N2CCC[C@H]2C(N)=O)sc1-c1ccnc(C(C)(C)C(F)(F)F)c1 [Alpelisib] (partner 2 µM)
Procedure, shortened: as §1

Afatinib + Navitoclax = compound: CN(C)C/C=C/C(=O)Nc1cc2c(Nc3ccc(F)c(Cl)c3)ncnc2cc1O[C@H]1CCOC1 [Afatinib] + CC1(C)CCC(c2ccc(Cl)cc2)=C(CN2CCN(c3ccc(C(=O)NS(=O)(=O)c4ccc(N[C@H](CCN5CCOCC5)CSc5ccccc5)c(S(=O)(=O)C(F)(F)F)c4)cc3)CC2)C1 [Navitoclax] (partner 0.5 µM)
Procedure, shortened: as §1

## NCI-H1299
Afatinib; 0.005 µM
  relative viability: 0.992
Afatinib; 0.01581 µM
  relative viability: 0.992
Afatinib; 0.05 µM
  relative viability: 1.06
Afatinib; 0.1581 µM
  relative viability: 1.01
Afatinib; 0.5 µM
  relative viability: 0.98
Afatinib + Foretinib; first compound 0.005 µM
  relative viability: 1.14
Afatinib + Foretinib; first compound 0.01581 µM
  relative viability: 1.06
Afatinib + Foretinib; first compound 0.05 µM
  relative viability: 1.15
Afatinib + Foretinib; first compound 0.1581 µM
  relative viability: 1.12
Afatinib + Foretinib; first compound 0.5 µM
  relative viability: 1.17
Afatinib + Pictilisib; first compound 0.005 µM
  relative viability: 0.84
Afatinib + Pictilisib; first compound 0.01581 µM
  relative viability: 0.828
Afatinib + Pictilisib; first compound 0.05 µM
  relative viability: 0.927
Afatinib + Pictilisib; first compound 0.1581 µM
  relative viability: 0.647
Afatinib + Pictilisib; first compound 0.5 µM
  relative viability: 0.68
Afatinib + Olaparib; first compound 0.005 µM
  relative viability: 0.981
Afatinib + Olaparib; first compound 0.01581 µM
  relative viability: 0.948
Afatinib + Olaparib; first compound 0.05 µM
  relative viability: 0.991
Afatinib + Olaparib; first compound 0.1581 µM
  relative viability: 1.02
Afatinib + Olaparib; first compound 0.5 µM
  relative viability: 0.988
Afatinib + Lapatinib; first compound 0.005 µM
  relative viability: 0.98
Afatinib + Lapatinib; first compound 0.01581 µM
  relative viability: 0.946
Afatinib + Lapatinib; first compound 0.05 µM
  relative viability: 0.973
Afatinib + Lapatinib; first compound 0.1581 µM
  relative viability: 0.969
Afatinib + Lapatinib; first compound 0.5 µM
  relative viability: 0.96
Afatinib + Linsitinib; first compound 0.005 µM
  relative viability: 0.978
Afatinib + Linsitinib; first compound 0.01581 µM
  relative viability: 0.951
Afatinib + Linsitinib; first compound 0.05 µM
  relative viability: 0.987
Afatinib + Linsitinib; first compound 0.1581 µM
  relative viability: 1.06
Afatinib + Linsitinib; first compound 0.5 µM
  relative viability: 0.97
Afatinib + Crizotinib; first compound 0.005 µM
  relative viability: 1.01
Afatinib + Crizotinib; first compound 0.01581 µM
  relative viability: 0.961
Afatinib + Crizotinib; first compound 0.05 µM
  relative viability: 0.983
Afatinib + Crizotinib; first compound 0.1581 µM
  relative viability: 0.97
Afatinib + Crizotinib; first compound 0.5 µM
  relative viability: 0.934
Afatinib + Bortezomib; first compound 0.005 µM
  relative viability: 0.983
Afatinib + Bortezomib; first compound 0.01581 µM
  relative viability: 0.978
Afatinib + Bortezomib; first compound 0.05 µM
  relative viability: 1.12
Afatinib + Bortezomib; first compound 0.1581 µM
  relative viability: 1.02
Afatinib + Bortezomib; first compound 0.5 µM
  relative viability: 1.04
Afatinib + Alpelisib; first compound 0.005 µM
  relative viability: 1.05
Afatinib + Alpelisib; first compound 0.01581 µM
  relative viability: 1.04
Afatinib + Alpelisib; first compound 0.05 µM
  relative viability: 1.12
Afatinib + Alpelisib; first compound 0.1581 µM
  relative viability: 1.08
Afatinib + Alpelisib; first compound 0.5 µM
  relative viability: 1.04
Afatinib + Navitoclax; first compound 0.005 µM
  relative viability: 1.02
Afatinib + Navitoclax; first compound 0.01581 µM
  relative viability: 1.02
Afatinib + Navitoclax; first compound 0.05 µM
  relative viability: 1.13
Afatinib + Navitoclax; first compound 0.1581 µM
  relative viability: 1.11
Afatinib + Navitoclax; first compound 0.5 µM
  relative viability: 1.06
